Results from patent EP4647433A1, “SHP2 INHIBITOR AND USES THEREOF” (Kanaph Therapeutics Inc., priority 2023, dated 2024).
pIC50: −log10 of the molar value. Where two headings read alike, the source gives them in different places.

What was measured:
SHP2 = target: T1, SHP2 (Homo sapiens, UniProt Q06124); experiment: Phosphatase assay (PTPase assay, DiFMUP substrate); format: biochemical
T1 construct: SHP2 (full length, diluted to 100 pM final concentration in reaction buffer, BPS bioscience, US); purchased BPS bioscience, US
T1 sequence (Q06124 1-593): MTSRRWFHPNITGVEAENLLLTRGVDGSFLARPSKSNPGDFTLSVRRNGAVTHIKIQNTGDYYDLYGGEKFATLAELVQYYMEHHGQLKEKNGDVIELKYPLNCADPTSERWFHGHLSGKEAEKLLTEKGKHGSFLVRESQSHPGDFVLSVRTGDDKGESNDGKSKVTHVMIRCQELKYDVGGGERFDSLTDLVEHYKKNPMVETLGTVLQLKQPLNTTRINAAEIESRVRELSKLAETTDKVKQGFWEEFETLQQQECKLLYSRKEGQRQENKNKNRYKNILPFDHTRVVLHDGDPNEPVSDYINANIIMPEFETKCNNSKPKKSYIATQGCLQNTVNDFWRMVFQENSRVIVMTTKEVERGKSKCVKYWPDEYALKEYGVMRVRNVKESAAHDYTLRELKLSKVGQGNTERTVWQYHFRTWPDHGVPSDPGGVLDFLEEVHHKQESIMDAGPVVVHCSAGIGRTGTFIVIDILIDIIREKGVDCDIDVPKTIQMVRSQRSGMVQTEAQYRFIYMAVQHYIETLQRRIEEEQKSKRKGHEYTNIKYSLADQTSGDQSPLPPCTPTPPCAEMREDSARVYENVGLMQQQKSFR
Description: IC50 values were measured using 6,8-difluoro-4-methylumbelliferyl phosphate (DiFMUP) as a substrate. The reaction was performed in a 384-well plate, and fluorescence measurement values were obtained using an EnVision plate reader from PerkinElmer.
SHP2 (full length, diluted to 100 pM final concentration in reaction buffer, BPS bioscience, US) was incubated with the SHP2 activating peptide in reaction buffer (60 mM HEPES (pH 7.2), 75 mM NaCl, 75 mM KCl, 1 mM EDTA, 5 mM DTT, 0.05% P-20) for 30 minutes to activate SHP2. After activation, DMSO [1% (V/V) or the compound according to the Examples (concentration ranging from 0.6 nM to 10 µM)] was added. As a positive control group, the selective SHP2 inhibitors SHP099 (6-(4-amino-4-methylpiperidin-1-yl)-3-(2,3-dichlorophenyl)pyrazin-2-amine, FOCUS bioscience, Austrailia; concentration ranging from 0.6 nM to 10 µM) and TNO155 ((3S,4S)-8-(6-amino-5-((2-amino-3-chloropyridin-4-yl)thio)pyrazin-2-yl)-3-methyl-2-oxa-8-azaspiro[4.5]decan-4-amine, Chemietek, US; concentration ranging from 0.6 nM to 10 µM) were used. [drawing 184]
DiFMUP (80 µM) was added to the reaction and incubated for a total of 2 hours to allow for the reaction to proceed. Thereafter, fluorescence (340 nm excitation, 450 nm emission) values were measured. IC50 values were obtained using Graphad's Prism from the measured values depending on the concentration.
In the phosphatase assay (PTPase assay), when an IC50 value was 100 nM or more, + was indicated, when an IC50 value was 3 nM or more and less than 100 nM, ++ was indicated, and when an IC50 value was less than 3 nM, +++ was indicated.

H358 cells = experiment: Cell viability (3D spheroid, 3D CellTiter-Glo); format: cell-based; conditions: Homo sapiens, NCI-H358, 120 h; H358 spheroids, 5 days treatment
Description: Human non-small cell lung cancer cell line H358 cells were purchased from the Korean Cell Line Bank. Cancer cell lines were cultured in the recommended RPMI-1640 medium supplemented with 10% fetal bovine serum (FBS) and 1% penicillin/streptomycin. Monolayer-cultured cancer cell lines were detached by treatment with Trypsin/EDTA, and 100 µL of cell suspension containing 4 x 10^3 cells was each dispensed into SPL3D™ Cell Floater, 96-well round plate, through cell line counting. After culturing for 72 hours to form spheroid, the cells were individually treated with the compounds according to the Examples, which had been serially diluted (minimum 1.5 nM, maximum 10 µM in concentration), and then cultured in a cell incubator for 5 days. To analyze cell viability, the cells were treated with 50 uL of 3D CellTiter-Glo, stirred for 5 minutes at 500 rpm in a plate shaker from Thermo Fisher Scientific, and incubated for 25 minutes at room temperature. Then, the luminescent values were measured using a Varioskan equipment from Thermo Fisher Scientific. IC50 values were obtained using GraphPad's Prism from the measured values depending on the concentration.
In the cell viability assay, when an IC50 value was 50 nM or more, + was indicated, when an IC50 value was 10 nM or more and less than 50 nM, ++ was indicated, and when an IC50 value was less than 10 nM, +++ was indicated.

[1] = full length SHP2 100 pM activated with SHP2 activating peptide, DiFMUP 80 µM, 2 hours, read-out: PTPase assay (IC50)

Compound	pIC50 (SHP2; [1])	pIC50 (H358 cells)	pIC50 (SHP2)
CC(C)(C)Cn1cnc2ccc(Sc3cnc(N4CCC5(CC4)Cc4ncsc4[C@H]5N)cn3)c(Cl)c2c1=O [Example 5, (S)-6-((5-(6-amino-4,6-dihydrospiro[cyclopenta[d]thiazole-5,4'-piperidin]-1'-yl)pyrazin-2-yl)thio)-5-chloro-3-neopentylquinazolin-4(3H)-one]	> 8.52		
Cn1cnc2ccc(Sc3cnc(N4CCC5(CC4)Cc4ncccc4[C@H]5N)cn3)c(Cl)c2c1=O [Example 6, (S)-6-((5-(5-amino-5,7-dihydrospiro[cyclopenta[b]pyridine-6,4'-piperidin]-1'-yl)pyrazin-2-yl)thio)-5-chloro-3-methylquinazolin-4(3H)-one]	> 8.52	> 8.00	
CC(C)(O)Cn1cnc2ccc(Sc3ncc(N4CCC5(CC4)Cc4ccccc4[C@H]5N)nc3N)c(Cl)c2c1=O [Example 11, (S)-6-((3-amino-5-(1-amino-1,3-dihydrospiro[indene-2,4'-piperidin]-1'-yl)pyrazin-2-yl)thio)-5-chloro-3-(2-hydroxy-2-methylpropyl)quinazolin-4(3H)-one]	> 8.52	> 8.00	
C[C@@H]1OCC2(CCN(c3cnc(Sc4ccc5ncn(Cc6ccccc6)c(=O)c5c4Cl)c(N)n3)CC2)[C@@H]1N [Example 12, 6-((3-amino-5-((3S,4S)-4-amino-3-methyl-2-oxa-8-azaspiro[4.5]decan-8-yl)pyrazin-2-yl)thio)-3-benzyl-5-chloroquinazolin-4(3H)-one]	7.00 to 8.52		
CC1(CN)CCN(c2cnc(Sc3ccc4ncn(Cc5ccccc5)c(=O)c4c3Cl)c(N)n2)CC1 [Example 13, 6-((3-amino-5-(4-(aminomethyl)-4-methylpiperidine-1-yl)pyrazin-2-yl)thio)-3-benzyl-5-chloroquinazolin-4(3H)-one]	7.00 to 8.52		
COC(C)Cn1ccc2ccc(Sc3cnc(N4CCC5(CC4)CO[C@@H](C)[C@H]5N)cn3)c(Cl)c2c1=O (stereo partly drawn) [Example 14, 7-((5-((3S,4S)-4-amino-3-methyl-2-oxa-8-azaspiro[4.5]decan-8-yl)pyrazin-2-yl)thio)-8-chloro-2-(2-methoxypropyl)isoquinolin-1(2H)-one]	> 8.52	> 8.00	
Cn1ccc2ccc(Sc3cnc(N4CCC5(CC4)Cc4ncsc4[C@H]5N)cn3)c(Cl)c2c1=O [Example 16, (S)-7-((5-(6-amino-4,6-dihydrospiro[cyclopenta[d]thiazole-5,4'-pineridin]-1'-yl)pyrazin-2-yl)thio)-8-chloro-2-methylisoquinolin-1(2H)-one]		> 8.00	
Cn1cnc2ccc(Sc3cnc(N4CCC5(CC4)Cc4ncsc4[C@H]5N)cn3)cc2c1=O [Example 17, (S)-6-((5-(6-amino-4,6-dihydrospiro[cyclopenta[d]thiazole-5,4'-piperidin]-1'-yl)pyrazin-2-yl)thio)-3-methylquinazolin-4(3H)-one]	> 8.52	> 8.00	
COC(F)(F)Cn1cnc2ccc(Sc3cnc(N4CCC5(CC4)CO[C@@H](C)[C@H]5N)cn3)c(Cl)c2c1=O [Example 19, 6-((5-((3S,4S)-4-amino-3-methyl-2-oxa-8-azaspiro[4.5]decan-8-yl)pyrazin-2-yl)thio)-5-chloro-3-(2,2-difluoro-2-methoxyethyl)quinazolin-4(3H)-one]	> 8.52		
COC1(Cn2cnc3ccc(Sc4cnc(N5CCC6(CC5)CO[C@@H](C)[C@H]6N)cn4)c(Cl)c3c2=O)CC1 [Example 20, 6-((5-((3S,4S)-4-amino-3-methyl-2-oxa-8-azaspiro[4.5]decan-8-yl)pyrazin-2-yl)thio)-5-chloro-3-((1-methoxycyclopropyl)methyl)quinazolin-4(3H)-one]	7.00 to 8.52		
C[C@@H]1OCC2(CCN(c3cnc(Sc4ccc5ncn(CC(C)(F)F)c(=O)c5c4Cl)cn3)CC2)[C@@H]1N [Example 21, 6-((5-((3S,4S)-4-amino-3-methyl-2-oxa-8-azaspiro[4.5]decan-8-yl)pyrazin-2-yl)thio)-5-chloro-3-(2,2-difluoropropyl)quinazolin-4(3H)-one]	> 8.52		
COCCn1cnc2ccc(Sc3cnc(N4CCC5(CC4)Oc4ccccc4[C@H]5N)cn3)c(Cl)c2c1=O [Example 22, (R)-6-((5-(3-amino-3H-spiro[benzofuran-2,4'-piperidin]-1'-yl)pyrazin-2-yl)thio)-5-chloro-3-(2-methoxyethyl)quinazolin-4(3H)-one]	7.00 to 8.52		
C[C@@H]1OCC2(CCN(c3cnc(Sc4ccc5ncn(CC6(C)CCOCC6)c(=O)c5c4Cl)cn3)CC2)[C@@H]1N [Example 23, 6-((5-((3S,4S)-4-amino-3-methyl-2-oxa-8-azaspiro[4.5]decan-8-yl)pyrazin-2-yl)thio)-5-chloro-3-((4-methyltetrahydro-2H-pyran-4-yl)methyl)quinazolin-4(3H)-one]	> 8.52	7.30 to 8.00	
C[C@@H]1OCC2(CCN(c3cnc(Sc4ccc5ncn(CCC#N)c(=O)c5c4Cl)cn3)CC2)[C@@H]1N [Example 24, 3-(6-((5-((3S,4S)-4-amino-3-methyl-2-oxa-8-azaspiro[4.5]decan-8: yl)pyrazin-2-yl)thio)-5-chloro-4-oxoquinazolin-3(4H)-yl)propanenitrile]		7.30 to 8.00	> 8.52
C[C@@H]1OCC2(CCN(c3cnc(Sc4ccc5ncn(CC6CCN(C)CC6)c(=O)c5c4Cl)cn3)CC2)[C@@H]1N [Example 26, 6-((5-((3S,4S)-4-amino-3-methyl-2-oxa-8-azaspiro[4.5]decan-8-yl)pyrazin-2-yl)thio)-5-chloro-3-((1-methylpiperidin-4-yl)methyl)quinazolin-4(3H)-one]	7.00 to 8.52	> 8.00	
N[C@@H]1c2ccccc2CC12CCN(c1cnc(Sc3ccc4ncn(-c5ccccc5)c(=O)c4c3Cl)cn1)CC2 [Example 30, (S)-6-((5-(1-amino-1,3-dihydrospiro[indene-2,4'-piperidin]-1'-yl)pyrazin-2-yl)thio)-5-chloro-3-phenylquinazolin-4(3H)-one]		> 8.00	
COC(C)(C)Cn1cnc2ccc(Sc3cnc(N4CCC5(CC4)Cc4scnc4[C@H]5N)cn3)c(Cl)c2c1=O [Example 33, (S)-6-((5-(4-amino-4,6-dihydrospiro[cyclopenta[d]thiazole-5,4'-piperidin]-1'-yl)pyrazin-2-yl)thio)-5-chloro-3-(2-methoxy-2-methylpropyl)quinazolin-4(3H)-one]		7.30 to 8.00	
N[C@@H]1c2scnc2CC12CCN(c1cnc(Sc3ccc4ncn(-c5ccccc5)c(=O)c4c3Cl)cn1)CC2 [Example 38, (S)-6-((5-(6-amino-4,6-dihydrospiro[cyclopenta[d]thiazole-5,4'-piperidin]-1'-yl)pyrazin-2-yl)thio)-5-chloro-3-phenylquinazolin-4(3H)-one]		> 8.00	
CC(C)n1ccc2ccc(Sc3cnc(N4CCC5(CC4)Cc4ncsc4[C@H]5N)cn3)c(Cl)c2c1=O [Example 40, (S)-7-((5-(6-amino-4,6-dihydrospiro[cyclopenta[d]thiazole-5,4'-piperidin]-1'-yl)pyrazin-2-yl)thio)-8-chloro-2-isopropylisoquinolin-1(2H)-one]	7.00 to 8.52	> 8.00	
